# Source: ChEMBL document CHEMBL1135852, “Inhibitors of NF-kappaB signaling: design and synthesis of a biotinylated isopanepoxydone affinity reagent” (2002)
# What was measured:
# HEK293 = assay: Compound was tested for NF-kB inhibitory activity in HEK 293 cells; format: functional, Homo sapiens
# HeLa = assay: Compound was tested for NF-kB inhibitory activity in Hela M cells; format: functional, Homo sapiens
SMILES,Inhibitory activity (HEK293),Inhibitory activity (HeLa)
CC(C)(O)/C=C/C1=CC(=O)[C@@H]2O[C@@H]2C1=O,<=0,<=0
CC(=O)O[C@H]1C(/C=C/C(C)(O)CCCCCCCCN2C(=O)c3ccccc3C2=O)=CC(=O)[C@@H]2O[C@@H]21 (stereo partly drawn),<=0,<=0
CC(=O)O[C@H]1C(/C=C/C(C)(C)O)=CC(=O)[C@@H]2O[C@@H]21,<=0,<=0
CC(=O)O[C@@H]1C(/C=C/C(C)(C)O)=C[C@@H](O)[C@@H]2O[C@@H]21,58,>=100
CC(C)=C[C@@H](O)C1=C[C@@H](O)[C@@H]2O[C@@H]2C1=O,<=0,<=0
CC(C)=CC(=O)C1=C[C@@H](O)[C@@H]2O[C@@H]2[C@@H]1O,65,85
CC(C)(O)/C=C/C1=C[C@@H](O)[C@@H]2O[C@@H]2C1=O,63,>=100
CC(C)(O)/C=C/C1=CC(=O)[C@@H]2O[C@@H]2[C@H]1O,4,<=0
CC(=O)O[C@@H]1C(/C=C/C(C)(C)O)=CC(=O)[C@@H]2O[C@H]12,<=0,<=0
CC(=O)O[C@H]1C(/C=C/C(C)(C)O)=C[C@@H](O)[C@@H]2O[C@@H]21,49,>=100
CC(C)=C[C@H](O)C1=C[C@@H](O)[C@@H]2O[C@@H]2C1=O [PANEPOXYDONE],<=0,<=0
CC(C)(O)/C=C/C1=CC(=O)[C@@H]2O[C@@H]2[C@@H]1O,,>=100
